{"source": "ChEMBL document CHEMBL4507283", "about": "“Data for DCP probe BI-1935” (2021)", "key": {"[1]": {"target": "Beta-1 adrenergic receptor (Homo sapiens) (UniProt P08588)", "details": "Compound concentration 10.0 uM; call rule not given here"}, "[2]": {"target": "Dual specificity mitogen-activated protein kinase kinase 7 (Homo sapiens) (UniProt O14733)", "sequence (O14733 whole entry)": "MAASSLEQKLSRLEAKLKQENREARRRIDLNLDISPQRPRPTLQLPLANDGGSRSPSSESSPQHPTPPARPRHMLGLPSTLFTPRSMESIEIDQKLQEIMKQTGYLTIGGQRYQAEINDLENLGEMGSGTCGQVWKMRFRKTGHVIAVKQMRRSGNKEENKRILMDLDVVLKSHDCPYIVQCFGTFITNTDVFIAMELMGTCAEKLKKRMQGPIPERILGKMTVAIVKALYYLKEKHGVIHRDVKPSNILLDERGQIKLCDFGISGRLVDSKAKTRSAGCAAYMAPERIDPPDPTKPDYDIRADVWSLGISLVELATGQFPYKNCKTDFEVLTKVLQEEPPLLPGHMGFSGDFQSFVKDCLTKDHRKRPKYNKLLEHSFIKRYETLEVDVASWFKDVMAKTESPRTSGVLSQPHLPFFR", "details": "Compound concentration 1000.0 nM"}, "[3]": {"target": "Serine/threonine-protein kinase Nek1 (Homo sapiens) (UniProt Q96PY6)", "details": "Compound concentration 1000.0 nM"}, "[4]": {"target": "Homeodomain-interacting protein kinase 3 (Homo sapiens) (UniProt Q9H422)", "details": "Compound concentration 1000.0 nM"}, "[5]": {"target": "5-hydroxytryptamine receptor 1D (Homo sapiens) (UniProt P28221)", "details": "Compound concentration 10.0 uM"}, "[6]": {"target": "Mitogen-activated protein kinase kinase kinase 2 (Homo sapiens) (UniProt Q9Y2U5)", "sequence (Q9Y2U5 whole entry)": "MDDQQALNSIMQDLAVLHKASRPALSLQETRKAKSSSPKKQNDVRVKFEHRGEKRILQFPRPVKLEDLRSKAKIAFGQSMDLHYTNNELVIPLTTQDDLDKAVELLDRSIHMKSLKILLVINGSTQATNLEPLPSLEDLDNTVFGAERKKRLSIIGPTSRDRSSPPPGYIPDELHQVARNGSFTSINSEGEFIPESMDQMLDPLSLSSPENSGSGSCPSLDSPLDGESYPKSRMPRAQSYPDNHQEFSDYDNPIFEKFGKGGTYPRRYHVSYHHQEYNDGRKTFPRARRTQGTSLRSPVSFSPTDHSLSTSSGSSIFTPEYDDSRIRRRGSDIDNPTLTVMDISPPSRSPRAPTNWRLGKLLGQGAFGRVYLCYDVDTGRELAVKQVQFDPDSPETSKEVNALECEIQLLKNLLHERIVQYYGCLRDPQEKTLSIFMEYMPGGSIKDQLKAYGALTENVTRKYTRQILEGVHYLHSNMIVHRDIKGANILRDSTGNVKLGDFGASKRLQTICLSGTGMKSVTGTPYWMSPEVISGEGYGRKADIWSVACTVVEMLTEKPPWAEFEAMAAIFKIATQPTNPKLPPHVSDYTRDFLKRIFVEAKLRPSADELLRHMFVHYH", "details": "Compound concentration 1000.0 nM"}, "[7]": {"target": "Cyclin-dependent kinase 9 (Homo sapiens) (UniProt P50750)", "details": "Compound concentration 1000.0 nM"}, "[8]": {"system": "Receptor-type tyrosine-protein kinase FLT3 (Homo sapiens), P36888 [N841I]", "details": "Compound concentration 1000.0 nM"}, "[9]": {"target": "Ephrin type-A receptor 6 (Homo sapiens) (UniProt Q9UF33)", "details": "Compound concentration 1000.0 nM"}, "[10]": {"target": "Mitogen-activated protein kinase kinase kinase 3 (Homo sapiens) (UniProt Q99759)", "details": "Compound concentration 1000.0 nM"}, "[11]": {"target": "Fibroblast growth factor receptor 2 (Homo sapiens) (UniProt P21802)", "details": "Compound concentration 1000.0 nM"}, "[12]": {"target": "Serine/threonine-protein kinase MRCK beta (Homo sapiens) (UniProt Q9Y5S2)", "details": "Compound concentration 1000.0 nM"}, "[13]": {"target": "Mitogen-activated protein kinase 6 (Homo sapiens) (UniProt Q16659)", "details": "Compound concentration 1000.0 nM"}, "[14]": {"target": "MAP kinase-interacting serine/threonine-protein kinase 1 (Homo sapiens) (UniProt Q9BUB5)", "details": "Compound concentration 1000.0 nM"}, "[15]": {"target": "Mitogen-activated protein kinase 1 (Homo sapiens) (UniProt P28482)", "details": "Compound concentration 1000.0 nM"}, "[16]": {"target": "Type-2 angiotensin II receptor (Homo sapiens) (UniProt P50052)", "assay": "AT2/HU Eurofins-Panlabs selectivity data (BI)", "details": "Compound concentration 10.0 uM"}, "[17]": {"target": "Tyrosine-protein kinase Blk (Homo sapiens) (UniProt P51451)", "details": "Compound concentration 1000.0 nM"}, "[18]": {"target": "Serine/threonine-protein kinase TAO3 (Homo sapiens) (UniProt Q9H2K8)", "details": "Compound concentration 1000.0 nM"}, "[19]": {"target": "Cyclin-dependent kinase-like 2 (Homo sapiens) (UniProt Q92772)", "details": "Compound concentration 1000.0 nM"}, "[20]": {"system": "Tyrosine-protein kinase ABL1 (Homo sapiens), P00519 [Q252H]", "details": "Compound concentration 1000.0 nM"}, "[21]": {"target": "Wee1-like protein kinase 2 (Homo sapiens) (UniProt P0C1S8)", "details": "Compound concentration 1000.0 nM"}, "[22]": {"target": "Mitogen-activated protein kinase 12 (Homo sapiens) (UniProt P53778)", "details": "Compound concentration 1000.0 nM"}, "[23]": {"target": "Voltage-dependent L-type calcium channel subunit alpha-1C (diltiazem site) (Rattus norvegicus, UniProt P22002)", "assay": "CA+/DILSI/RA Eurofins-Panlabs selectivity data (BI)", "details": "compound concentration 10 uM, read-out: % Ctrl"}, "[24]": {"target": "Serine/threonine-protein kinase DCLK2 (Homo sapiens) (UniProt Q8N568)", "details": "Compound concentration 1000.0 nM"}, "[25]": {"target": "3-phosphoinositide-dependent protein kinase 1 (Homo sapiens) (UniProt O15530)", "details": "Compound concentration 1000.0 nM"}, "[26]": {"target": "Ribosomal protein S6 kinase alpha-4 (Homo sapiens) (UniProt O75676)", "sequence (O75676 whole entry, looked up)": "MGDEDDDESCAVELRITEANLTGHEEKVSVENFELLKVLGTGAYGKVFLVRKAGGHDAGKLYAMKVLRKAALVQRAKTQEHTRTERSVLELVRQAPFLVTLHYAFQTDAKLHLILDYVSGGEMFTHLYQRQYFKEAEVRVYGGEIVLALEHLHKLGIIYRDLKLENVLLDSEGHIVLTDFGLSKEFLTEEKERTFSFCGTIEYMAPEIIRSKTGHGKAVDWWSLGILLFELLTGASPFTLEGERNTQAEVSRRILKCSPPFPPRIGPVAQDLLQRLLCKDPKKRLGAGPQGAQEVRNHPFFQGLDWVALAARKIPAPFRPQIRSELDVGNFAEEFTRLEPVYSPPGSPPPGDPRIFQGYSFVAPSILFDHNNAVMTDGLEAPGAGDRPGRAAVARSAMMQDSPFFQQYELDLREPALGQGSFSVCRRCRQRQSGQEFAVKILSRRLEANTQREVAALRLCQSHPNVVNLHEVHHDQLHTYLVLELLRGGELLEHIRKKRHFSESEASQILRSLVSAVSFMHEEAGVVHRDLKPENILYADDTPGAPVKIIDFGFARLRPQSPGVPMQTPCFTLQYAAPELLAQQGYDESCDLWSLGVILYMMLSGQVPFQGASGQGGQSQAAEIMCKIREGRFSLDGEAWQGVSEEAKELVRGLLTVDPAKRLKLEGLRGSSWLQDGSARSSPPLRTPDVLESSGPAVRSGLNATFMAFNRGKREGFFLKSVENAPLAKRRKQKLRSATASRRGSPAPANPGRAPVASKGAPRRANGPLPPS", "details": "Compound concentration 1000.0 nM"}, "[27]": {"target": "Endothelin-1 receptor (Homo sapiens) (UniProt P25101)", "assay": "ETA/HU Eurofins-Panlabs selectivity data (BI)", "details": "Compound concentration 10.0 uM"}, "[28]": {"target": "Voltage-dependent L-type calcium channel subunit alpha-1C (DHP site) (Rattus norvegicus, UniProt P22002)", "assay": "CA+/DHPSI/RA Eurofins-Panlabs selectivity data (BI)", "details": "compound concentration 10 uM, read-out: % Ctrl"}, "[29]": {"target": "Myosin-IIIa (Homo sapiens) (UniProt Q8NEV4)", "sequence (Q8NEV4 whole entry)": "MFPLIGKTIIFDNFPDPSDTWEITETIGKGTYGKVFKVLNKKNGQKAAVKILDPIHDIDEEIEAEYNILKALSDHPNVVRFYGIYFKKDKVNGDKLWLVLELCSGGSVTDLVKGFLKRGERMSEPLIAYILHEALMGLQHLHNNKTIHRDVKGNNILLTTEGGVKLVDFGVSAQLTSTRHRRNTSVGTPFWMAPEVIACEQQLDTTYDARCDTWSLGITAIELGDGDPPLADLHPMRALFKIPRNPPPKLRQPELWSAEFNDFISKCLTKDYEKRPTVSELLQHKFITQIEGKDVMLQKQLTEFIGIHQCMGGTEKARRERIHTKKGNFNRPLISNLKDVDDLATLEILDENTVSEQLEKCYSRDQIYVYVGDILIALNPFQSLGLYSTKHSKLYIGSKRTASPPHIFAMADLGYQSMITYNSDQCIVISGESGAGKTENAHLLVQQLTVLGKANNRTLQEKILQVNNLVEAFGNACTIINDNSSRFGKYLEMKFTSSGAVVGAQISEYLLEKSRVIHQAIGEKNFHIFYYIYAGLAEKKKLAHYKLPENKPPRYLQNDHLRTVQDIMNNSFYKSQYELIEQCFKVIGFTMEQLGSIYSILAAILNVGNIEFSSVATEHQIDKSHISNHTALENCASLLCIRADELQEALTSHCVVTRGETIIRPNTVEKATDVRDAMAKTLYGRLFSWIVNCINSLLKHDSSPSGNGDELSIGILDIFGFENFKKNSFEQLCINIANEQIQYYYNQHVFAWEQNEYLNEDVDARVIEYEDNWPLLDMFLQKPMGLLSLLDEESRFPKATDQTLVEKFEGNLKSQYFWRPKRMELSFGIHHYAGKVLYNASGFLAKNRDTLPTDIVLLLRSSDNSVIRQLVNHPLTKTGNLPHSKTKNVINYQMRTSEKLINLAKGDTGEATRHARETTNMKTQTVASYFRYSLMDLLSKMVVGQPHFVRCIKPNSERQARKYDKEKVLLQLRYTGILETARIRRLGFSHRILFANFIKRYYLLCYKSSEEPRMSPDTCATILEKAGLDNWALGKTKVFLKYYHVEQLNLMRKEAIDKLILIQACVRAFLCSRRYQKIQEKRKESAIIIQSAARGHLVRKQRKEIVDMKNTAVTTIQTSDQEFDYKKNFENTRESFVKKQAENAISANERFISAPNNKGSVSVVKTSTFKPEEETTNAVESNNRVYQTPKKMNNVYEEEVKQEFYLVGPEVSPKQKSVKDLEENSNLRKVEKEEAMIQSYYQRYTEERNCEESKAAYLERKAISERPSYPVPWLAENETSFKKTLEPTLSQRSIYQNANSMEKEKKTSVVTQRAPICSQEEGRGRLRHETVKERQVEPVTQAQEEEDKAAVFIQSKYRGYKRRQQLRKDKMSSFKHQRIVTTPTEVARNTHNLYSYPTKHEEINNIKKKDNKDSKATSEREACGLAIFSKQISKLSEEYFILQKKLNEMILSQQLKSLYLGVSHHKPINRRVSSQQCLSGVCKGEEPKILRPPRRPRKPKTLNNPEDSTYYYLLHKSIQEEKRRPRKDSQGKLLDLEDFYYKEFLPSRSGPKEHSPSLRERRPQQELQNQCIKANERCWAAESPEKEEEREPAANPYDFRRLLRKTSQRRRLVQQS", "details": "Compound concentration 1000.0 nM"}, "[30]": {"target": "Ribosomal protein S6 kinase alpha-4 (Homo sapiens) (UniProt O75676)", "details": "Compound concentration 1000.0 nM", "remark": "listed apart in the source"}, "[31]": {"target": "Casein kinase I isoform gamma-3 (Homo sapiens) (UniProt Q9Y6M4)", "details": "Compound concentration 1000.0 nM"}, "[32]": {"target": "Serine/threonine-protein kinase 17B (Homo sapiens) (UniProt O94768)", "sequence (O94768 whole entry)": "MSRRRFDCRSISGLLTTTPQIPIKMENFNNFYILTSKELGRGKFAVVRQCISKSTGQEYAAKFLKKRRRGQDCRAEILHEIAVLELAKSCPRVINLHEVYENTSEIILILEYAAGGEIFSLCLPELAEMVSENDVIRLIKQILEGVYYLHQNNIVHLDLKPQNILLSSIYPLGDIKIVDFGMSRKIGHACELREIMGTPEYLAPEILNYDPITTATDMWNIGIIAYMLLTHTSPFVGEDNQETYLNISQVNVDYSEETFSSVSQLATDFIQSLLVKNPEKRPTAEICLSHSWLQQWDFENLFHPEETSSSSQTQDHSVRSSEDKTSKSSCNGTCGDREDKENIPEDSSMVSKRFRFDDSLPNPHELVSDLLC", "details": "Compound concentration 1000.0 nM"}, "[33]": {"target": "Receptor-interacting serine/threonine-protein kinase 2 (Homo sapiens) (UniProt O43353)", "details": "Compound concentration 1000.0 nM"}, "[34]": {"target": "TGF-beta receptor type-2 (Homo sapiens) (UniProt P37173)", "sequence (P37173 whole entry)": "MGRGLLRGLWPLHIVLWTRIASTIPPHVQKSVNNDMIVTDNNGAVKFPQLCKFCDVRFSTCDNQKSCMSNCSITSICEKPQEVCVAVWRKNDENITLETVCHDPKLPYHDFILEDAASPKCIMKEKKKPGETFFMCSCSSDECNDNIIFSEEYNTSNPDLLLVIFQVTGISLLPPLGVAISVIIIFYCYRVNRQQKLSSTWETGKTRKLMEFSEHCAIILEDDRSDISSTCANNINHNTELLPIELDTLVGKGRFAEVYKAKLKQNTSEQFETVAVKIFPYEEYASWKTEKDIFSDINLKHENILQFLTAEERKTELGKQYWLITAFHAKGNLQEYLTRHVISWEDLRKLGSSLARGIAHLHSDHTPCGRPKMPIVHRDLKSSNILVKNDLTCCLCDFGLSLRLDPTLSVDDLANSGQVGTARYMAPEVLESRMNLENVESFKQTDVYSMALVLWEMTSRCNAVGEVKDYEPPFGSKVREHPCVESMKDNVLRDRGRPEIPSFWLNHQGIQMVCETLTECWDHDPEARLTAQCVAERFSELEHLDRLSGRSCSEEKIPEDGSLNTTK", "details": "Compound concentration 1000.0 nM"}, "[35]": {"system": "Phosphatidylinositol 4,5-bisphosphate 3-kinase catalytic subunit alpha isoform (Homo sapiens), P42336 [M1043I]", "details": "Compound concentration 1000.0 nM"}, "[36]": {"target": "Cyclin-dependent kinase 16 (Homo sapiens) (UniProt Q00536)", "details": "Compound concentration 1000.0 nM"}, "[37]": {"target": "Serine/threonine-protein kinase pim-3 (Homo sapiens) (UniProt Q86V86)", "details": "Compound concentration 1000.0 nM"}, "[38]": {"target": "Uncharacterized serine/threonine-protein kinase SBK3 (Homo sapiens) (UniProt P0C264)", "details": "Compound concentration 1000.0 nM"}, "[39]": {"target": "Protein kinase C delta type (Homo sapiens) (UniProt Q05655)", "sequence (Q05655 whole entry, looked up)": "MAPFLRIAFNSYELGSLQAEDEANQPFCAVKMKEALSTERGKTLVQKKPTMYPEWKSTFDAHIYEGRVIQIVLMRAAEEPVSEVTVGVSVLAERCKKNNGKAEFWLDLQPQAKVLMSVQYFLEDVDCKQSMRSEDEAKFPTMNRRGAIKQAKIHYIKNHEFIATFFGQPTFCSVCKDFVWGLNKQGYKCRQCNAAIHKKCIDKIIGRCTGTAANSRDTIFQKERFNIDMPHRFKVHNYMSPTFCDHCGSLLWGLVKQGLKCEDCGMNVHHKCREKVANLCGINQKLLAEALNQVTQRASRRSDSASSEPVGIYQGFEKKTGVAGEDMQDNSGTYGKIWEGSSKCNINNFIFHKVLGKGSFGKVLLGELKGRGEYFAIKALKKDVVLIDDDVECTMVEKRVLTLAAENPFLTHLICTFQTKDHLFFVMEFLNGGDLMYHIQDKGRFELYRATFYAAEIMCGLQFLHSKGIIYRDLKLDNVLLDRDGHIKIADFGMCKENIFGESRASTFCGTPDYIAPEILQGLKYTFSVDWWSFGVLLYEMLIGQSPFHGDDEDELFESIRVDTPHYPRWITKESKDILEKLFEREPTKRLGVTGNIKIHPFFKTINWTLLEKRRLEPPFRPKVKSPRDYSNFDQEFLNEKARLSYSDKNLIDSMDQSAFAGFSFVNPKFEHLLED", "details": "Compound concentration 1000.0 nM"}, "[40]": {"target": "Serine/threonine-protein kinase 32A (Homo sapiens) (UniProt Q8WU08)", "details": "Compound concentration 1000.0 nM"}, "[41]": {"target": "Serine/threonine-protein kinase Nek9 (Homo sapiens) (UniProt Q8TD19)", "details": "Compound concentration 1000.0 nM"}, "[42]": {"target": "Cyclin-dependent kinase-like 1 (Homo sapiens) (UniProt Q00532)", "details": "Compound concentration 1000.0 nM"}, "[43]": {"target": "Leukotriene C4 synthase (Cavia porcellus) (UniProt A6XA80)", "assay": "LTC4SYN Eurofins-Panlabs selectivity data (BI)", "details": "Compound concentration 10.0 uM"}, "[44]": {"target": "Histamine H2 receptor (Homo sapiens) (UniProt P25021)", "details": "Compound concentration 10.0 uM"}, "[45]": {"target": "Serine/threonine-protein kinase N2 (Homo sapiens) (UniProt Q16513)", "details": "Compound concentration 1000.0 nM"}}}
{"compound": "CCOCCn1cc(C(=O)Nc2ccc(-n3nc(-c4cccnc4)cc3C(F)(F)F)cn2)ccc1=O", "note": "[BI 1935]", "values": [{"measurement": "inhibition", "setting": "[1]", "value": -9.69, "unit": "%"}, {"measurement": "residual activity", "setting": "[2]", "value": 85, "unit": "%"}, {"measurement": "residual activity", "setting": "[3]", "value": 100, "unit": "%"}, {"measurement": "residual activity", "setting": "[4]", "value": 76, "unit": "%"}, {"measurement": "inhibition", "setting": "[5]", "value": 0.593, "unit": "%"}, {"measurement": "residual activity", "setting": "[6]", "value": 94, "unit": "%"}, {"measurement": "residual activity", "setting": "[7]", "value": 97, "unit": "%"}, {"measurement": "residual activity", "setting": "[8]", "value": 92, "unit": "%"}, {"measurement": "residual activity", "setting": "[9]", "value": 93, "unit": "%"}, {"measurement": "residual activity", "setting": "[10]", "value": 100, "unit": "%"}, {"measurement": "residual activity", "setting": "[11]", "value": 49, "unit": "%"}, {"measurement": "residual activity", "setting": "[12]", "value": 89, "unit": "%"}, {"measurement": "residual activity", "setting": "[13]", "value": 100, "unit": "%"}, {"measurement": "residual activity", "setting": "[14]", "value": 97, "unit": "%"}, {"measurement": "residual activity", "setting": "[15]", "value": 100, "unit": "%"}, {"measurement": "residual activity", "setting": "[16]", "value": 97, "unit": "%"}, {"measurement": "residual activity", "setting": "[17]", "value": 89, "unit": "%"}, {"measurement": "residual activity", "setting": "[18]", "value": 66, "unit": "%"}, {"measurement": "residual activity", "setting": "[19]", "value": 100, "unit": "%"}, {"measurement": "residual activity", "setting": "[20]", "value": 83, "unit": "%"}, {"measurement": "residual activity", "setting": "[21]", "value": 100, "unit": "%"}, {"measurement": "residual activity", "setting": "[22]", "value": 65, "unit": "%"}, {"measurement": "activity at 10 µM", "setting": "[23]", "value": "95% (not active)"}, {"measurement": "residual activity", "setting": "[24]", "value": 89, "unit": "%"}, {"measurement": "residual activity", "setting": "[25]", "value": 87, "unit": "%"}, {"measurement": "residual activity", "setting": "[26]", "value": 100, "unit": "%"}, {"measurement": "residual activity", "setting": "[27]", "value": 97, "unit": "%"}, {"measurement": "activity at 10 µM", "setting": "[28]", "value": "94.5% (not active)"}, {"measurement": "residual activity", "setting": "[29]", "value": 100, "unit": "%"}, {"measurement": "residual activity", "setting": "[30]", "value": 80, "unit": "%"}, {"measurement": "residual activity", "setting": "[31]", "value": 100, "unit": "%"}, {"measurement": "residual activity", "setting": "[32]", "value": 81, "unit": "%"}, {"measurement": "residual activity", "setting": "[33]", "value": 71, "unit": "%"}, {"measurement": "residual activity", "setting": "[34]", "value": 100, "unit": "%"}, {"measurement": "residual activity", "setting": "[35]", "value": 100, "unit": "%"}, {"measurement": "residual activity", "setting": "[36]", "value": 98, "unit": "%"}, {"measurement": "residual activity", "setting": "[37]", "value": 90, "unit": "%"}, {"measurement": "residual activity", "setting": "[38]", "value": 78, "unit": "%"}, {"measurement": "residual activity", "setting": "[39]", "value": 100, "unit": "%"}, {"measurement": "residual activity", "setting": "[40]", "value": 96, "unit": "%"}, {"measurement": "residual activity", "setting": "[41]", "value": 100, "unit": "%"}, {"measurement": "residual activity", "setting": "[42]", "value": 80, "unit": "%"}, {"measurement": "residual activity", "setting": "[43]", "value": 112, "unit": "%"}, {"measurement": "inhibition", "setting": "[44]", "value": -3.48, "unit": "%"}, {"measurement": "residual activity", "setting": "[45]", "value": 100, "unit": "%"}]}
